Earlier results as cited in US20040136904A1, “Dry powder compositions comprising labelled particles for inhalation” (priority 2001, published 2004).

Settings: in vivo

- time in which 50% is removed from the surface of the lung: ~10 min
SMILES: [Na+].[O]=[Tc](=[O])(=[O])[O-] [sodium pertechnetate]
